This is an account of results in article PMC8453745, “Human Mass Balance and Metabolite Profiling of [^14C]‐Pamiparib, a Poly (ADP‐Ribose) Polymerase Inhibitor, in Patients With Advanced Cancer” (Clinical Pharmacology in Drug Development, 2021).

Usually half-life stands for how long it takes for the measured level to halve.

One data set concerns the target T1, CYP2D6 (Homo sapiens, UniProt P10635).
T1 construct: tissue Corning (Woburn, New York); host or cells: pooled human liver microsomes
The data set can be described thus: CYP450 phenotyping in HLMs with CYP2D6 inhibitor quinidine. As to conditions: HLM incubation. The format is in vitro ADME. On the procedure:
Metabolic stability in human liver microsomes (HLMs) and cytochrome P450 (CYP450) phenotyping assays were conducted in 3D BioOptima (Suzhou, China) using validated methodology, [13] to determine the intrinsic clearance and enzymes responsible for metabolism of pamiparib. HLMs for microsome stability was from BD Biosciences (Woburn, New York). For phenotyping, HLMs and recombinant P450 (rCYP) were from Corning (Woburn, New York). Pamiparib (1 μM) was incubated with pooled HLM (0.5 mg/mL), NADPH (1 mM), and MgCl2 (3 mM) terminated at 0, 5, 15, 30, 60, and 90 minutes. The intrinsic clearance was calculated as 0.693/(t1/2 × HLM concentration), where t1/2 is the half‐life of pamiparib determined in HLMs. For phenotyping in HLMs, pamiparib (1 μM) was incubated in the absence or presence of isoform‐selective inhibitors: 0.2 μM α‐naphthoflavone for CYP1A2, 2 μM clopidogrel for CYP2B6, 16 μM montelukast for CYP2C8, 10 μM sulfaphenazole for CYP2C9, 30 μM nootkatone for CYP2C19, 2 μM quinidine for CYP2D6, and 1 μM ketoconazole for CYP3A. The following isoform‐selective probe substrates served as positive controls: 40 μM phenacetin for CYP1A2, 100 μM bupropion for CYP2B6, 2 μM amodiaquine for CYP2C8, 5 μM diclofenac for CYP2C9, 40 μM S‐mephenytoin for CYP2C19, 5 μM dextromethorphan for CYP2D6, and 2 μM midazolam for CYP3A4. […] Pamiparib, M1, and M2 were analyzed by LC‐MS/MS.

Data set [1] relates to human liver microsomes (HLMs). Description: metabolic stability in human liver microsomes. The format is in vitro ADME. As to conditions: 90‐minute incubation in HLMs without CYP inhibitors. On the procedure: (§1) Metabolic stability in human liver microsomes (HLMs) and cytochrome P450 (CYP450) phenotyping assays were conducted in 3D BioOptima (Suzhou, China) using validated methodology, [13] to determine the intrinsic clearance and enzymes responsible for metabolism of pamiparib. HLMs for microsome stability was from BD Biosciences (Woburn, New York). For phenotyping, HLMs and recombinant P450 (rCYP) were from Corning (Woburn, New York). Pamiparib (1 μM) was incubated with pooled HLM (0.5 mg/mL), NADPH (1 mM), and MgCl2 (3 mM) terminated at 0, 5, 15, 30, 60, and 90 minutes. The intrinsic clearance was calculated as 0.693/(t1/2 × HLM concentration), where t1/2 is the half‐life of pamiparib determined in HLMs. For phenotyping in HLMs, pamiparib (1 μM) was incubated in the absence or presence of isoform‐selective inhibitors: 0.2 μM α‐naphthoflavone for CYP1A2, 2 μM clopidogrel for CYP2B6, 16 μM montelukast for CYP2C8, 10 μM sulfaphenazole for CYP2C9, 30 μM nootkatone for CYP2C19, 2 μM quinidine for CYP2D6, and 1 μM ketoconazole for CYP3A. The following isoform‐selective probe substrates served as positive controls: 40 μM phenacetin for CYP1A2, 100 μM bupropion for CYP2B6, 2 μM amodiaquine for CYP2C8, 5 μM diclofenac for CYP2C9, 40 μM S‐mephenytoin for CYP2C19, 5 μM dextromethorphan for CYP2D6, and 2 μM midazolam for CYP3A4. […] Pamiparib (1 μM) was also incubated with rCYP1A2, rCYP2B6, rCYP2C8, rCYP2C9, rCYP2C19, rCYP2D6, or rCYP3A4 (50 pmol/mL) for 90 minutes with NADPH and MgCl2. The following isoform‐selective probe substrates served as positive controls: 1 μM phenacetin for CYP1A2, 2 μM bupropion for CYP2B6, 2 μM amodiaquine for CYP2C8, 2 μM diclofenac for CYP2C9, 10 μM S‐mephenytoin for CYP2C19, 1 μM dextromethorphan for CYP2D6, and 20 μM midazolam for CYP3A4. Pamiparib, M1, and M2 were analyzed by LC‐MS/MS.
(In general: Liver microsomes are vesicles of endoplasmic reticulum, rich in cytochrome P450 enzymes.)

Data set [2] is described as follows: metabolic stability in human liver microsomes. The format is in vitro ADME. As to conditions: human, pooled human liver microsomes, 1 μM, 0.5 mg/mL HLM, NADPH. On the procedure:
as §1

The nature of data set [3]: total radioactivity in plasma of patients (LSC). The format is in vivo, human. The text has this:
Part 1 of the study included a screening phase of up to 28 days prior to drug administration to assess eligibility. Patients were admitted to the clinical research unit (CRU) at Royal Liverpool University Hospital (Liverpool, UK)/Clatterbridge Cancer Centre NHS Foundation Trust (Bebington, Wirral, UK) on day −1 and received a single dose of 60‐mg/100 μCi [^14C]‐pamiparib orally the morning of day 1. Patients remained in the CRU until completion of assessments on day 7, when discharge criteria of ≈90% of the radioactive dose being recovered or <1% of the radioactive dose being recovered in urine and feces for 2 consecutive 24‐hour collection intervals were met. If discharge criteria were not met by day 7, patients collected 24‐hour excreta samples up to day 14 on an outpatient basis. Part 2 of the study, evaluating the safety/tolerability and antitumor activity of 60 mg twice‐daily pamiparib in patients with advanced and/or metastatic solid tumors, is ongoing and is not included in this report.
Patients fasted overnight and 2 hours after oral administration of a single 60‐mg dose containing ≈100 μCi (3.7‐3.9 MBq) of [^14C]‐pamiparib with ≈240 mL of room‐temperature water or juice (orange or grape). The residual radioactivity present in each vial postdose was corrected from the dose. The radioactive dose of 100 μCi of [^14C]‐pamiparib provided minimum risk to patients according to the dosimetry calculation from a quantitative whole‐body autoradiography study in male and female Long Evans rats; the dose also provided sufficient signal for total radioactivity counting and quantitative radioprofiling in blood, plasma, and excreta (data on file). […]
Total radioactivity was analyzed at Covance Laboratories (Harrogate, North Yorkshire, UK), and metabolite profiling was conducted at Covance Laboratories (Madison, Wisconsin). Determination of pamiparib concentrations in plasma and total radioactivity in plasma and whole blood was performed predose and 0.25, 0.5, 1, 1.5, 2, 2.5, 3, 6, 12, 24, 48, 72, 96, 120, and 144 hours postdose. Pamiparib concentrations in plasma and urine were determined at Covance Laboratories (Salt Lake City, Utah) with validated liquid chromatography‐tandem mass spectrometry (LC‐MS/MS) methods.
Total radioactivity concentrations of [^14C]‐pamiparib in whole blood, plasma, urine, and feces were determined by liquid scintillation counting (LSC). Radioactivity in each sample was measured for 5 minutes using a Packard Tri‐Carb liquid scintillation counter model 2100TR, 2900TR, or 3100TR (Canberra Packard, Pangbourne, Berks, Australia) with the facilities for computing quench‐corrected disintegrations per minute. […] Quantitation of the metabolites present in plasma, urine, and feces was based on the profiles of radioactivity. […]

T1 sequence (P10635 whole entry): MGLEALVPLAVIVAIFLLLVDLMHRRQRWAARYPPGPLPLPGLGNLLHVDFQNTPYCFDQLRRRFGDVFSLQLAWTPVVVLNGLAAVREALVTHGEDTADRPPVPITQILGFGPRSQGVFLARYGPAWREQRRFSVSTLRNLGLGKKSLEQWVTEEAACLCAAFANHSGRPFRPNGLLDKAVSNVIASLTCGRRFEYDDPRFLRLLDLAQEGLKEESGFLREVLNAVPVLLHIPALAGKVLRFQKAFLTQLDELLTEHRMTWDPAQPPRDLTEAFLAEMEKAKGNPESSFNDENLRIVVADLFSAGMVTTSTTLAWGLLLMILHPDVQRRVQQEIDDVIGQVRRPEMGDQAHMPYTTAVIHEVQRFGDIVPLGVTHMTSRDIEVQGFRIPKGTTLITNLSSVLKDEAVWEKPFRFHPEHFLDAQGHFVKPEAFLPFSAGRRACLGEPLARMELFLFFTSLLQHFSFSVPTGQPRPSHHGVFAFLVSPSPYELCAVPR

As for `C[C@]12CCCN1CC1=NNC(=O)c3cc(F)cc4[nH]c2c1c34` [Pamiparib], the “effect of CYP2D6 inhibitor quinidine on pamiparib metabolism” value on CYP2D6 is listed as “minimal effect”. The pamiparib remaining in data set [1] was 45.0%. The compound also registered a half-life at 1 μM in data set [2] of 3 h. Moreover, the microsomal CLint at 1 μM in data set [2] (read-out: intrinsic clearance in HLM) was determined as 7.9 µL/min/mg. In addition, in data set [3], the “geometric mean AUC0‐t of pamiparib (LC‐MS/MS) as percent of total radioactivity in plasma” value is ~69.9%, the “geometric mean AUC0‐∞ of pamiparib (LC‐MS/MS) as percent of total radioactivity in plasma” value is given as ~69.4% and the “geometric mean Cmax of pamiparib (LC‐MS/MS) as percent of total radioactivity in plasma” value is given as “≈ 91.6%”. Also, the “AUC0‐∞ ratio plasma pamiparib/total radioactivity, geometric mean (CV%)” value in data set [3] (n = 4) is given as 0.694 (2.7).
